Results taken from the NIST ThermoML archive (doi:10.1021/acs.jced.6b00210).

Test: xn = mol fraction of the nth substance listed
Details: 100 kPa, Liquid; for viscosity: Concentric cylinders viscometry; for mass density: Vibrating tube method

Nc1ccccc1 [aniline] + CC(C)O
Details	mass density [kg/m3]	viscosity [mPa·s]
293.15 K, x1 = 0.0813	809.7	2.291
293.15 K, x1 = 0.1599	832	2.176
293.15 K, x1 = 0.2396	853.7	2.12
293.15 K, x1 = 0.349	882	2.1
293.15 K, x1 = 0.4402	904.3	2.17
293.15 K, x1 = 0.5598	932.1	2.33
293.15 K, x1 = 0.6501	952	2.54
293.15 K, x1 = 0.74	971	2.81
293.15 K, x1 = 0.8499	993.2	3.31
293.15 K, x1 = 0.9402	1010.6	3.93
293.15 K, x1 = 1	1021.7	4.37
298.15 K, x1 = 0.0813	805.3	1.963
298.15 K, x1 = 0.1599	827.5	1.86
298.15 K, x1 = 0.2396	849.2	1.8
298.15 K, x1 = 0.349	877.4	1.78
298.15 K, x1 = 0.4402	899.7	1.84
298.15 K, x1 = 0.5598	927.6	1.98
298.15 K, x1 = 0.6501	947.5	2.16
298.15 K, x1 = 0.74	966.5	2.39
298.15 K, x1 = 0.8499	988.8	2.84
298.15 K, x1 = 0.9402	1006.2	3.39
298.15 K, x1 = 1	1017.4	3.8
303.15 K, x1 = 0.0813	800.8	1.651
303.15 K, x1 = 0.1599	823	1.56
303.15 K, x1 = 0.2396	844.6	1.5
303.15 K, x1 = 0.349	872.8	1.47
303.15 K, x1 = 0.4402	895.1	1.48
303.15 K, x1 = 0.5598	923	1.58
303.15 K, x1 = 0.6501	942.9	1.7
303.15 K, x1 = 0.74	961.9	1.9
303.15 K, x1 = 0.8499	984.2	2.27
303.15 K, x1 = 0.9402	1001.8	2.73
303.15 K, x1 = 1	1013.2	3.13
308.15 K, x1 = 0.0813	796.4	1.454
308.15 K, x1 = 0.1599	818.5	1.39
308.15 K, x1 = 0.2396	840	1.34
308.15 K, x1 = 0.349	868.2	1.3
308.15 K, x1 = 0.4402	890.6	1.3
308.15 K, x1 = 0.5598	918.5	1.36
308.15 K, x1 = 0.6501	938.5	1.48
308.15 K, x1 = 0.74	957.6	1.67
308.15 K, x1 = 0.8499	980	1.99
308.15 K, x1 = 0.9402	997.7	2.39
308.15 K, x1 = 1	1009	2.75
313.15 K, x1 = 0.0813	791.9	1.29
313.15 K, x1 = 0.1599	814	1.23
313.15 K, x1 = 0.2396	835.5	1.18
313.15 K, x1 = 0.349	863.6	1.15
313.15 K, x1 = 0.4402	885.9	1.14
313.15 K, x1 = 0.5598	913.8	1.2
313.15 K, x1 = 0.6501	933.9	1.3
313.15 K, x1 = 0.74	953.1	1.48
313.15 K, x1 = 0.8499	975.6	1.79
313.15 K, x1 = 0.9402	993.3	2.13
313.15 K, x1 = 1	1004.7	2.43
318.15 K, x1 = 0.0813	787.2	1.125
318.15 K, x1 = 0.1599	809.2	1.076
318.15 K, x1 = 0.2396	830.7	1.043
318.15 K, x1 = 0.349	858.9	1.02
318.15 K, x1 = 0.4402	881.2	1.03
318.15 K, x1 = 0.5598	909.2	1.08
318.15 K, x1 = 0.6501	929.2	1.166
318.15 K, x1 = 0.74	948.5	1.34
318.15 K, x1 = 0.8499	971.1	1.6
318.15 K, x1 = 0.9402	988.9	1.9
318.15 K, x1 = 1	1000.4	2.14
323.15 K, x1 = 0.0813	782.4	0.97
323.15 K, x1 = 0.1599	804.3	0.91
323.15 K, x1 = 0.2396	825.7	0.88
323.15 K, x1 = 0.349	853.8	0.85
323.15 K, x1 = 0.4402	876.2	0.86
323.15 K, x1 = 0.5598	904.1	0.91
323.15 K, x1 = 0.6501	924.2	1.01
323.15 K, x1 = 0.74	943.4	1.18
323.15 K, x1 = 0.8499	966.1	1.45
323.15 K, x1 = 0.9402	984	1.74
323.15 K, x1 = 1	995.5	1.96
